Measured values reported in PubChem BioAssay AID1996.
Converted amounts (≈) assume the structure as drawn.

conditions: buffer; pH 7.4; 200.0 µM

Structure (SMILES)	solubility kinetic
Cl.NC(=NCc1ccccc1)c1cccc([N+](=O)[O-])c1	> 0.0438 mg/mL
O=C(OCCC1Oc2cccnc2NC1=O)c1ccc(Cl)cc1 (stereo not drawn)	0.004 mg/mL (≈ 12 µM)
Cc1ccc(-c2csc3ncnc(SCC(=O)O)c23)cc1	> 0.0475 mg/mL
O=C1CC(NCc2ccc(F)cc2)C(=O)N1c1ccccc1 (stereo not drawn)	0.0436 mg/mL (≈ 146 µM)
COc1ccc(C(=O)CSc2nccn2C)c(OC)c1	> 0.0439 mg/mL
Cc1cc(C)n(CC(=O)Nc2ccc3c(c2)OCO3)c(=O)c1C#N	0.0084 mg/mL (≈ 25.8 µM)
Cn1c(=O)c2c(nc(N3CCCC3)n2C)n(C)c1=O	> 0.0395 mg/mL
CCOC(=O)Cc1csc(NC(=O)COc2ccc(C)cc2)n1	> 0.0502 mg/mL
O=C(O)c1cc2c(cn1)[nH]c1ccccc12	> 0.0318 mg/mL
Cc1ccc(Oc2ccc(NS(=O)(=O)c3cccc(C(=O)O)c3)cc2)cc1	0.0572 mg/mL (≈ 149 µM)
O=C(NCCc1c[nH]c2ccccc12)c1cc([N+](=O)[O-])cc([N+](=O)[O-])c1	0.0152 mg/mL (≈ 42.9 µM)
COc1ccccc1C(=O)OCCN=C1NS(=O)(=O)c2ccccc21	> 0.0541 mg/mL
COC(=O)c1cc(S(=O)(=O)NCCCc2ccco2)c[nH]1	> 0.0469 mg/mL
N#Cc1c(-c2ccc(F)cc2)ccnc1N1CCOCC1	> 0.0425 mg/mL
CCOC(=O)C1=C(C)NC(C)=C(C(=O)OCC)C1C(=O)OCC(=O)N(C)Cc1ccccc1	0.0028 mg/mL (≈ 6.11 µM)
Cc1cc(C)cc(NC(=O)N(CCC#N)Cc2cccs2)c1	0.0048 mg/mL (≈ 15.3 µM)
Cc1cc(C)c2c(n1)sc1c(N3CCCCC3)ncnc12	< 0.0002 mg/mL
Nc1cccc(/C=C/C(=O)O)c1	> 0.0245 mg/mL
S=C1NC2(CCCCCC2)N=C1c1ccccc1	0.0028 mg/mL (≈ 10.8 µM)
CCSc1ccccc1C(=O)N=C1NC(=O)CC2C(=O)NCCN12 (stereo not drawn)	0.0169 mg/mL (≈ 48.8 µM)
COc1ccc(NC(=O)CN(C)Cc2cccs2)cc1Cl	0.0421 mg/mL (≈ 130 µM)
O=C1COc2ccc(C(=O)COC(=O)c3ccccc3F)cc2N1	0.0101 mg/mL (≈ 30.7 µM)
Cc1ccc(CN(C)C(=O)c2ccccc2Sc2ccccc2C#N)cc1	0.0147 mg/mL (≈ 39.5 µM)
O=C(c1ccc2nc(Cc3ccccc3F)oc2c1)N1CCCC1	0.0335 mg/mL (≈ 103 µM)

Structure (SMILES)	solubility kinetic
COc1ccccc1C(=O)NCCC(=O)NC1CCCCCC1	> 0.0478 mg/mL
CCN(C(=O)COC(=O)/C=C/c1ccco1)C1CCCCC1	0.0391 mg/mL (≈ 128 µM)
O=C(Nc1ccc(F)c([N+](=O)[O-])c1)C(=O)c1c(O)[nH]c2ccccc12	> 0.0515 mg/mL
S=C1NCN(Cc2cccnc2)CN1	> 0.0312 mg/mL
CCC(CC)NC(=O)Nc1ccccc1C(F)(F)F	0.0108 mg/mL (≈ 39.4 µM)
CCc1ccccc1NC(=O)c1cc([N+](=O)[O-])ccc1N1CCOCC1	> 0.0533 mg/mL
Cc1cc(C(=O)O)c(C)n1C1CC1	> 0.0269 mg/mL
O=C1CC2(CCN(C(=O)COc3ccc(F)cc3)CC2)Oc2ccccc21	> 0.0554 mg/mL
COc1ccccc1C(=O)NC(CCSC)C(=O)NC1CC1 (stereo not drawn)	> 0.0484 mg/mL
COC(=O)c1ccc(NC(=O)COc2ccc([N+](=O)[O-])cc2)cc1	0.0004 mg/mL (≈ 1.21 µM)
Cc1ccc2c(C(=O)CN3CCC(C(N)=O)CC3)c(C)[nH]c2c1	> 0.047 mg/mL
CC(C)C(=O)Nc1cc2c3c(c1)CCN3C(=O)CC2	0.0387 mg/mL (≈ 150 µM)
Cc1ccc(S(=O)(=O)/N=C2/NC(=O)/C(=C\c3ccccc3)S2)cc1	> 0.0538 mg/mL
O=C(c1ccccc1CCc1ccccc1)N1CCCC1	0.0405 mg/mL (≈ 145 µM)
O=C(O)C1C2CCC(O2)C1C(=O)Nc1ccc(F)c(Cl)c1 (stereo not drawn)	> 0.0471 mg/mL
O=C(NC1CC1)C1CCN(C(=O)c2ccc(Cl)cc2Cl)CC1	> 0.0512 mg/mL
CC(C)CCn1c(=O)c(C(=O)NCc2ccco2)c(O)c2ccccc21	< 0.0004 mg/mL
CC1CC(C)CN(C(=O)COc2ccc([N+](=O)[O-])cc2Cl)C1 (stereo not drawn)	0.011 mg/mL (≈ 33.7 µM)
O=C(NCCCn1ccnc1)c1c(F)cccc1F	0.038 mg/mL (≈ 143 µM)
Cc1sc2ncnc(SCc3ccc(C(=O)O)cc3)c2c1C	> 0.0496 mg/mL
CCCCCCNc1c([N+](=O)[O-])c(=O)sc2ccccc12	0.0044 mg/mL (≈ 14.4 µM)
O=C(CNCc1cccc(Cl)c1)N1CCc2ccccc2C1	0.0389 mg/mL (≈ 124 µM)
Cc1cccc(C)c1NC(=O)COC(=O)c1cc[n+]([O-])cc1	> 0.045 mg/mL
COc1cc(OC)cc(C(=O)N[C@H](C(=O)OCC(=O)Nc2ccc3c(c2)OCO3)C(C)C)c1	0.0212 mg/mL (≈ 46.2 µM)

Structure (SMILES)	solubility kinetic
CCOc1nc2ccccc2cc1/C=C/C(=O)O	0.0131 mg/mL (≈ 53.9 µM)
Cc1ccccc1NS(=O)(=O)c1ccc2oc(=O)ccc2c1	> 0.0473 mg/mL
O=C(c1cccnc1)c1ncc(C(F)(F)F)cc1Cl	0.0357 mg/mL (≈ 125 µM)
Cn1cc(S(=O)(=O)N2CCOCC2)cc1C(=O)O	> 0.0411 mg/mL
COc1ccc(C(=O)COC(=O)c2ccccn2)c(OC)c1	> 0.0452 mg/mL
COCc1c(CCl)cnc(C)c1O	> 0.0302 mg/mL
CC(=O)c1cc(C(C)=O)c(C)nc1C	> 0.0287 mg/mL
O=C(CCNC(=O)c1ccco1)NCc1ccc(F)cc1	> 0.0435 mg/mL
O=C(CCN1N=C(c2ccccc2)CCC1=O)NC1CCCC1	> 0.047 mg/mL
Cc1ccccc1CN1CCN(C(=O)CC(C)C)CC1	0.027 mg/mL (≈ 98.4 µM)
CCN(C(=O)CN1C(=O)c2ccc([N+](=O)[O-])cc2C1=O)C1CCCCC1	> 0.0539 mg/mL
Cc1cc(SCC(=O)c2ccc(O)c(O)c2)nc2ccccc12	0.0035 mg/mL (≈ 10.8 µM)
Cc1cccc(-c2noc(CNC(=O)c3ccc4c(c3)OCO4)n2)c1	0.0023 mg/mL (≈ 6.82 µM)
CCC(C)C(=O)Nc1nc2ccc(OC)cc2s1 (stereo not drawn)	> 0.0397 mg/mL
O=C(c1ccc(Cn2cc([N+](=O)[O-])cn2)o1)N1CCCCCC1	> 0.0477 mg/mL
CC(=O)c1ccc(OCC(=O)NC2CCCCCC2)cc1	> 0.0434 mg/mL
C#CCn1ccc(O)c(Cc2ccccc2)c1=O	> 0.0359 mg/mL
COc1ccc(C(=O)N(c2ccc(C)cc2)C2C=CS(=O)(=O)C2)cc1OC (stereo not drawn)	0.0553 mg/mL (≈ 143 µM)
CCOc1ccc(NC(=S)N2CCCCCC2)cc1	> 0.0418 mg/mL
Cc1c(NC(=O)CSCc2ccccc2)cccc1C(=O)O	> 0.0473 mg/mL
CCOc1ccc(Br)cc1C(=S)N1CCCC1	0.0062 mg/mL (≈ 19.7 µM)
O=C(CNC(=O)c1ccc(-c2ccccc2)cc1)Nc1cccc(CO)c1	0.0093 mg/mL (≈ 25.8 µM)
CCCCNC(=O)CN1C(=O)NC2(CCOc3ccccc32)C1=O (stereo not drawn)	> 0.0497 mg/mL
CCOCc1c(C(=O)NC2CCCCCC2)oc2ccccc12	0.0009 mg/mL (≈ 2.85 µM)

Structure (SMILES)	solubility kinetic
COc1ccccc1NC(=O)C(=O)/C=C(\O)c1ccccc1	0.0108 mg/mL (≈ 36.3 µM)
C=CCN(c1ccccc1OC)S(=O)(=O)c1cccc(C(=O)OCC(=O)N2CCOCC2)c1	> 0.0712 mg/mL
Cc1cc(=O)n(Cc2ccccc2)c(O)c1C#N	0.0322 mg/mL (≈ 134 µM)
COC(=O)c1ccc(CNC(=O)COC(=O)CCC(=O)c2ccc(F)cc2)cc1	0.0055 mg/mL (≈ 13.7 µM)
Cn1c(N)c(C(=O)COC(=O)C2=NNC(=O)CC2)c(=O)n(C)c1=O	> 0.0506 mg/mL
CC(C)CCc1c(O)nc(SCC(C)C)[nH]c1=O	> 0.0406 mg/mL
CC1CN(C2=NC(=O)/C(=C/c3ccncc3)S2)CC(C)O1 (stereo not drawn)	> 0.0455 mg/mL
CCc1ccc(NC(=O)Cn2cc([N+](=O)[O-])nc2C)cc1	0.0067 mg/mL (≈ 23.2 µM)
O=C(O)CCNC(=O)C12CC3CC(CC(C3)C1)C2	> 0.0377 mg/mL
CN(CC(=O)Nc1ccc(Cl)cc1F)C1=NS(=O)(=O)c2ccccc21	0.0078 mg/mL (≈ 20.4 µM)
Cc1c(C(=O)Cc2ccccc2)n(C)c2ccccc12	0.0025 mg/mL (≈ 9.49 µM)
COc1cc(OC)cc(C(=O)Nc2ccc(CN3CCCCC3)cc2)c1	0.0492 mg/mL (≈ 139 µM)
CN=CC1=C(O)C(C(=O)OC)C(C)(C)CC1=O (stereo not drawn)	> 0.0359 mg/mL
Cc1ccc(CNC(=O)CCn2c(=O)oc3ccccc32)cc1	0.0051 mg/mL (≈ 16.4 µM)
Cc1ccc(C(=O)COC(=O)CCNS(=O)(=O)c2ccccc2F)cc1	> 0.0569 mg/mL
C/C(=N\NC(=O)c1ccccc1C)c1cccnc1	> 0.038 mg/mL
Cc1nc2c(ccc3nc(NC(=O)C4CC4)sc32)s1	0.0028 mg/mL (≈ 9.68 µM)
Cc1cc(C(F)(F)F)nc(SCCN2CCOCC2)c1C#N	0.0433 mg/mL (≈ 131 µM)
O=[N+]([O-])c1cccc(S(=O)(=O)NCCc2cn3ccccc3n2)c1	0.0485 mg/mL (≈ 140 µM)
COc1ccc(CCNC(=O)C2CCN(C(=O)c3ccccc3)CC2)cc1	0.0492 mg/mL (≈ 134 µM)
Cc1cc(Br)c(NC(=O)COC(=O)c2ccc[n+]([O-])c2)c(Br)c1	> 0.0666 mg/mL
COc1ccc(N2C(=O)/C(=C/c3cccs3)C(=O)NC2=S)cc1	0.0314 mg/mL (≈ 91.2 µM)
CCOC(=O)/C=C/C(=O)OCC(=O)Nc1cccc(Br)c1	0.0138 mg/mL (≈ 38.7 µM)
CC1CCC(N(CCCN)Cc2ccco2)CC1C (stereo not drawn)	0.0316 mg/mL (≈ 120 µM)

Structure (SMILES)	solubility kinetic
Cc1ccc(S(=O)(=O)N2CCC(C(=O)NC3CC3)CC2)cc1	> 0.0484 mg/mL
Brc1c(-c2ccccc2)nc2n1Cc1ccccc1-2	0.0006 mg/mL (≈ 1.93 µM)
CC(C)N1CCN(Cc2ccsc2)CC1CCO (stereo not drawn)	> 0.0403 mg/mL
CN(C(=O)COC(=O)CNC(=O)c1sc2ccccc2c1Cl)C1CCS(=O)(=O)C1 (stereo not drawn)	> 0.0688 mg/mL
CCC(C)NS(=O)(=O)c1ccc(NC(=O)c2cccs2)cc1 (stereo not drawn)	0.0026 mg/mL (≈ 7.68 µM)
COc1ccccc1CNC(=O)C1(C)Oc2cccnc2NC1=O (stereo not drawn)	> 0.0491 mg/mL
COc1ccc(CCC(=O)OCC(=O)Nc2ccccc2)cc1	> 0.047 mg/mL
O=c1c2ccccc2[nH]c(=S)n1-c1cccnc1	0.0076 mg/mL (≈ 29.8 µM)
O=S(=O)(Nc1ccccn1)c1ccc(Cl)c2ccccc12	0.0014 mg/mL (≈ 4.39 µM)
O=S(=O)(c1ccc2c(c1)CCC2)N1CCNCC1	> 0.04 mg/mL
CC1=C(C(=O)Nc2ccccc2)S(=O)(=O)CCO1	0.038 mg/mL (≈ 142 µM)
COc1cc(Oc2nc(C(F)(F)F)nc3ccccc23)ccc1C=O	< 0.0004 mg/mL
CCCCN1C(=O)c2ccc(C(=O)N(C)CC(=O)Nc3ccc(OCC)c(OCC)c3)cc2C1=O	0.0175 mg/mL (≈ 36.3 µM)
Cc1cc(S(=O)(=O)c2ccc([N+](=O)[O-])cn2)ccc1Br	0.0017 mg/mL (≈ 4.76 µM)
CCOc1ccc(NC(=O)CCn2ccnc2)cc1	> 0.0389 mg/mL
O=C(NCC1COc2ccccc2O1)c1cccs1 (stereo not drawn)	0.0397 mg/mL (≈ 144 µM)
O=C(Cc1csc(-c2ccccc2)n1)NCc1cccs1	0.0156 mg/mL (≈ 49.6 µM)
CN1CCN(c2ccccc2NC(=O)c2ccccc2F)CC1	> 0.047 mg/mL
Cc1cccc2cc3c(nc12)-c1ccccc1C3=O	< 0.0005 mg/mL
Cc1nc2ccccc2c(=O)n1CCc1ccc(O)cc1	> 0.042 mg/mL
COc1ccc2c(c1)CCc1c(C(=O)NCC(C)C)noc1-2	0.0015 mg/mL (≈ 4.99 µM)
O=C(CC12CC3CC(CC(Br)(C3)C1)C2)NC1CCCC1	0.0364 mg/mL (≈ 107 µM)
